# Literature values in article PMC8398451, “Molecular Engineering of Curcumin, an Active Constituent of Curcuma longa L. (Turmeric) of the Family Zingiberaceae with Improved Antiproliferative Activity” (Plants, 2021).
# How the values were obtained:
# Set-up in all cases: method as in earlier work
# Conditions in all cases: cited from earlier work; for Mean % GI: 10 µM, retrieved from NCI data-ware
# [1] = tested on: Leukemia cell line panel
# [2] = tested on: Non-Small Cell Lung Cancer cell line panel
# [3] = tested on: Colon Cancer cell line panel
# [4] = tested on: CNS Cancer cell line panel
# [5] = tested on: Melanoma cell line panel
# [6] = tested on: Ovarian Cancer cell line panel
# [7] = tested on: Renal Cancer cell line panel
# [8] = tested on: Prostate Cancer cell line panel
# [9] = tested on: Breast Cancer cell line panel
# [10] = five-dose assay, curcumin NCI data
structure (smiles),measurement,setting,value
"COc1cc(/C=C/C(=O)CC(=O)/C=C/c2ccc(O)c(OC)c2)ccc1O [Cur, Curcumin]",Mean % GI,[1],97.76%
same,GI50,[1]; [10],3.7 µM
same,Mean % GI,[2],49.27%
same,GI50,[2]; [10],9.2 µM
same,Mean % GI,[3],95.76%
same,GI50,[3]; [10],4.7 µM
same,Mean % GI,[4],60.75%
same,GI50,[4]; [10],5.8 µM
same,Mean % GI,[5],54.63%
same,GI50,[5]; [10],5.9 µM
same,Mean % GI,[6],44.66%
same,GI50,[6]; [10],9.1 µM
same,Mean % GI,[7],45.35%
same,GI50,[7]; [10],8.9 µM
same,Mean % GI,[8],61.3%
same,GI50,[8]; [10],11.2 µM
same,Mean % GI,[9],56.1%
same,GI50,[9]; [10],8.1 µM
COc1cc2ncnc(Nc3ccc(F)c(Cl)c3)c2cc1OCCCN1CCOCC1 [Gefitinib],Mean % GI,[1],79.68%
same,Mean % GI,[2],63.97%
same,Mean % GI,[3],52.19%
same,Mean % GI,[4],46.13%
same,Mean % GI,[5],44.99%
same,Mean % GI,[6],60.93%
same,Mean % GI,[7],77.89%
same,Mean % GI,[8],59.6%
same,Mean % GI,[9],52.88%
